Experimental findings from patent EP1067965B1, “PHARMACEUTICAL COMPOSITION FOR TREATING CEREBRAL APOPLEXY AND CRANIOCEREBRAL TRAUMA” (Bayer HealthCare AG, priority 1997, dated 1999) are described below.

Structures are written as SMILES.

Assay [1] deals with isolierte Aortaringe des Kaninchens. The assay is described as follows: Inhibition of KCl-induced contraction of isolated rabbit aortic rings. The assay is classed as cell-based. To be noted: KCl 1 x 10^-2 mol/l; mean ± standard deviation; Nimodipin value under a comparable set-up; read-out: EC50-Wert, Inhibition der KCl-induzierten Kontraktion der Kaninchen-Aortenringe. The text has this: Im Allgemeinen heben Kalziumkanalantagonisten die KCl-induzierte Kontraktion isolierter Aortaringe des Kaninchens auf (vgl. Arzneim.-Forsch./Drug Res. 1992, 42, 795-797; J. Pharmacol. Exp.Ther. 1953, 108,129-143.).
Kaninchen beiderlei Geschlechts werden schmerzlos betäubt und entblutet. Der thorakale Teil der Aorta descendens wird ohne Verletzung der Endothelschicht freipräpariert und auf ca. 2 mm breite spiraienförmige Streifensegmente geschnitten und einzeln unter einer Anfangsbelastung von ca. 2 g in 10ml Carbogen-begaste Krebs-Bicarbonat-Pufferlösung (37°C) verbracht.
Kontraktionen werden isometrisch erfaßt und ausgewertet.
Die funktionelle Integrität des Endotheliums wird durch Noradrenalin (1 x 10^-8 mol/l) induzierte Kontraktionen und durch Acetylcholin (1 x 10^-8 - 1 x 10^-5 mol/l) hervorgerufene Relaxation getestet. Nach einer Auswasch- und Ruhephase sowie Erreichen eines stabilen Basalwertes (ca. nach 2 Stunden) wird mit Zugabe von 0,25 ml KCl, bei einer Endkonzenration von 1 x 10^-2 mol/l eine submaximale (60-80%) Kontraktion der Aortastreifen ausgelöst. Die Testsubstanz wird während der Plateauphase der KCl induzierten Kontraktion in die Bäder appliziert (in steigender Dosierungen: 1 x 10^-12 - 1 x 10^-5 mol/l Endkonzentration) und die Wirkung auf den kontrahierten Gefäßstreifen gemessen. […]

The target in assay [2] is T1, 5-HT1A Rezeptor gekoppelte Adenylatcyclase-Aktivität (Rattus norvegicus, UniProt P19327).
T1 construct: an hippocampalen Zellmembranen der Ratte; from tissue; host or cells: rat hippocampus membranes
T1 sequence (P19327 1-422): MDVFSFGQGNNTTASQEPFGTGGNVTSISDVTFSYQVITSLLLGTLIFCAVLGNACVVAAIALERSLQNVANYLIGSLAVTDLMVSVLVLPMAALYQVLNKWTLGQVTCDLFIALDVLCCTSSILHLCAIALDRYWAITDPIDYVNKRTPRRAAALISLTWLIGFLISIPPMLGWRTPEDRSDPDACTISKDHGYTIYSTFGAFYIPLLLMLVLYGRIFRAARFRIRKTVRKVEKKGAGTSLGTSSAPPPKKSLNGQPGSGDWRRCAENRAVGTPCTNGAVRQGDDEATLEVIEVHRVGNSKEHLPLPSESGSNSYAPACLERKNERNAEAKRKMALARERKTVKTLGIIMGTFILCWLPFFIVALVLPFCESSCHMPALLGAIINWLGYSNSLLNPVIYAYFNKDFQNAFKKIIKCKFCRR
Put plainly: Inhibition of forskolin-stimulated adenylate cyclase activity on hippocampal cell membranes. It is filed as biochemical. To be noted: Hippocampusmembranen der Ratte; 0,01 mM Forskolin; read-out: IC50-Wert, Inhibition der Forskolin-stimulierten Adenylatcyclase Aktivität. The procedure: 5-HT1A Rezeptor gekoppelte Adenylatcyclase-Aktivität wurde an hippocampalen Zellmembranen der Ratte mit der Methodik von De Vivo und Maayani (J. Pharmacol. Exp. Ther. 1986, 238, 248-253.) gemessen.
Der Hippocampus wurde in 25 Volumen 0,3 M Sucroselösung (ergänzt mit 1mM EGTA, 5 mM EDTA, 5 mM Dithiothreitol und 20 mM Tris-HCl; pH 7,4 bei 25°C) in einem motorgetriebenen Potter-Elvehjem-Homogenisator zerkleinert. Das Homogenat wurde 10 min lang bei 1.000 g abzentrifugiert, danach der Überstand 10 min bei 39.000 g nochmals zentrifugiert. Das Pellet wurde im Homogenisationspuffer aufgenommen. Aliquots mit einem Proteingehalt von 1 mg/ml (gemessen nach Bradford Anal. Biochem. 1976, 72, 248-254.) wurden bei -140°C bis zur weiteren Verarbeitung aufbewahrt. Vor dem Assay wurde das aufgetaute Homogenat mit dem Potter-Elvehjem-Homogenisator nochmals homogenisiert. 50 µl Homogenat (mit ca. 50 µg Proteingehalt) wurden der vorgewärmten (5 min bei 30°C) Inkubationsmischung (100 mM NaCl, 2mM Magnesium Acetate 0,2 mM ATP, 1 mM cAMP, 0,01 mM GTP, 0,01 mM Forskolin, 80 mM Tris-HCl, 5 mM Creatine Phosphate, 0,8 U/µl Creatine Phosphokinase, 0,01 mM IBMX, 1 - 2 µCi α-[^32P]ATP) zupipettiert und so die Inkubation (10 min bei 30°C) gestartet.
Zur Messung der Adenylatcyclase-Aktivität wurde die Menge des gebildeten [^32P]cAMP nach Salomon (Adv. Cyclic Nucleotide Res. 1979, 10, 35-55.) bestimmt.

The test system of assay [3] is Rattenmodell der permanenten fokalen cerebralen Ischämie (MCA-O). Put plainly: Neuroprotection in the rat model of permanent focal cerebral ischaemia (MCA-O). The assay is classed as in vivo, Ratte. To be noted: 7 days survival, Placebo 146,69 ± 6,77. The source says:
Unter allgemeiner Narkose (Isofluran) wird in der Mitte zwischen Auge und Ohr ein Hautschnitt gelegt und unter Durchtrennung der darunterliegenden Muskelpartien ein Zugang zum Schädel im Bereich des Foramen ovale geschaffen. Etwa 1 mm rostrodorsal dieser Öffnung wird der Schädelkalotte durchgebohrt, die darunterliegenden Hirnhäute eröffnet, und durch Elektrokoagulation die Arteria cerebri media und deren Nebenäste permanent verschlossen. Daraufhin wird die Kaumuskulatur in ihre ursprüngliche Lage gebracht. Die Muskel- und Hautwunde wird chirurgisch verschlossen und versorgt. Nach dem Aufwachen aus der Narkose werden die Tiere in ihren Heimkäfig zurückgesetzt. Im Verlauf der folgenden Stunden entwickelt sich im Versorgungsgebiet der Arteria cerebri media ein Infarkt, dessen Ausdehnung histologisch quantifiziert wird.
Nach 7 Tagen Überlebenszeit werden die Tiere getötet, das Gehirn entnommen und in auf -30°C gekühltem 2-Methylbutan eingefroren. Mit Hilfe eines Kryostatmikrotoms werden 20 µm dicke Schnitte in 500 µm Abstand im Infarktbereich hergestellt. Nach der Cresylechtviolett-Färbung der fixierten Gehirnschnitte ist das Infarktgebiet vom nicht betroffenen Gewebe deutlich zu unterscheiden. […]

In general, EC50 refers to the midpoint of the concentration-response curve. On to `COC(=O)C1=C(C)NC(C)=C(C(=O)OC)C1c1ccccc1[N+](=O)[O-]` [Nifedipin], for which the concentration for a half-maximal effect (EC50) in assay [1] was 3.58 nM.
As a reminder, the IC50 is the concentration that inhibits the measured activity by half. As to `O=C1c2ccccc2S(=O)(=O)N1CCCCNCC1CCc2ccccc2O1` (single isomer, unassigned) [5-HT1A-Agonist*], the IC50 in assay [2] came to 1.6 nM. Besides, in assay [3] (i.v. infusion over 4 h directly after occlusion), the “Infarktvolumen im cerebralen Cortex (Mittelwert ± S.E.M; mm^3)” value is 104,79 ± 7,63 mm^3.
Take `COCCOC(=O)C1=C(C)NC(C)=C(C(=O)OC(C)C)C1c1cccc([N+](=O)[O-])c1` (racemic) [Nimodipin, (RS)-1,4-Dihydro-2,6-dimethyl-4-(3-nitrophenyl)-3,5-pyridindicarbonsäure-isopropylester-2-methoxyethylester]: the EC50 in assay [1] lay in the range of 2.9 to 4.3 nM. For the same compound, the “Infarktvolumen im cerebralen Cortex (Mittelwert ± S.E.M; mm^3)” value in assay [3] (0,003 mg/kg/Std i.v. infusion over 4 h directly after occlusion) is 120,87 ± 8,79 mm^3.
